What all share (assay type): cell-based, human
In test [1] the test system is HepG2 (Hepatocellular Carcinoma). In words: Cell viability analysis, hepatic cancer HepG2. To be noted: Homo sapiens, HepG2, 72 h.
The subject of test [2] is TSGH-8301 (Urinary Bladder Carcinoma). In words: Cell viability analysis, bladder cancer TSGH-8301. The following applies: Homo sapiens, 72 h.
Test [3] concerns MCF7 (Mammary Gland, Adenocarcinoma). In words: Cell viability analysis, breast cancer MCF7. To be noted: Homo sapiens, MCF7, 72 h.
The subject of test [4] is HI650 (Lung Adenocarcinoma). In words: Cell viability analysis, lung cancer HI650. To be noted: Homo sapiens, NCI-H1650, 72 h.
Test [5] has as its system HL-60 (Acute Promyelocytic Leukemia). In words: Cell viability analysis, leukemia HL-60. The following applies: Homo sapiens, HL-60, 72 h.
A further test relates to cancer cell lines. In words: Cell viability analysis (WST-1) on cancer cell lines. To be noted: drug 10 μM, 72 hours, WST-1; Table 3.
For test [6], the system named is MKN-45 (Gastric Adenocarcinoma). In words: Cell viability analysis, gastric cancer MKN-45. The following applies: Homo sapiens, MKN-45, 72 h.
For test [7], the system named is A375 (Amelanotic Melanoma). In words: Cell viability analysis, skin cancer A375. The following applies: Homo sapiens, A-375, 72 h.
For test [8], the system named is HeLa (Cervix Adenocarcinoma). In words: Cell viability analysis, cervical cancer HeLa. To be noted: Homo sapiens, HeLa, 72 h.
Test [9] concerns AGS (Gastric Adenocarcinoma). In words: Cell viability analysis, gastric cancer AGS. To be noted: Homo sapiens, 72 h.
Test [10] has as its system A549 (Lung Adenocarcinoma). In words: Cell viability analysis, lung cancer A549. To be noted: Homo sapiens, A549, 72 h.
The test system of test [11] is PC3 (p53−) (Prostate Adenocarcinoma). In words: Cell viability analysis, prostate cancer PC3. To be noted: Homo sapiens, 72 h.
Test [12] concerns LoVo (Colorectal Adenocarcinoma). In words: Cell viability analysis, colon cancer LoVo. To be noted: Homo sapiens, LoVo, 72 h, read-out: cell viability (survival rate), LoVo, drug 10 μM, 72 hours, WST-1, OD450 nm.
Where [13] appears, read: read-out: cell viability (survival rate), HepG2, drug 10 μM, 72 hours, WST-1, OD450 nm.
Setting [14] is: read-out: cell viability (survival rate), TSGH, drug 10 μM, 72 hours, WST-1, OD450 nm.
Setting [15] is: read-out: cell viability (survival rate), MCF7, drug 10 μM, 72 hours, WST-1, OD450 nm.
[16] abbreviates: read-out: cell viability (survival rate), H1650, drug 10 μM, 72 hours, WST-1, OD450 nm.
Where [17] appears, read: read-out: cell viability (survival rate), HL-60, drug 10 μM, 72 hours, WST-1, OD450 nm.
The mark [18] stands for this setting: read-out: cell viability (survival rate), MKN-45, drug 10 μM, 72 hours, WST-1, OD450 nm.
[19] abbreviates: read-out: cell viability (survival rate), A375, drug 10 μM, 72 hours, WST-1, OD450 nm.
[20] abbreviates: read-out: cell viability (survival rate), HeLa, drug 10 μM, 72 hours, WST-1, OD450 nm.
Setting [21] is: read-out: cell viability (survival rate), AGS, drug 10 μM, 72 hours, WST-1, OD450 nm.
[22] abbreviates: read-out: cell viability (survival rate), A549, drug 10 μM, 72 hours, WST-1, OD450 nm.
Where [23] appears, read: read-out: cell viability (survival rate), PC3, drug 10 μM, 72 hours, WST-1, OD450 nm.
The mark [24] stands for this setting: drug 10 μM, 72 hours, WST-1, OD450 nm, read-out: cell viability (survival rate), HepG2.
[25] abbreviates: drug 10 μM, 72 hours, WST-1, OD450 nm, read-out: cell viability (survival rate), TSGH.
[26] abbreviates: drug 10 μM, 72 hours, WST-1, OD450 nm, read-out: cell viability (survival rate), MCF7.
[27] abbreviates: drug 10 μM, 72 hours, WST-1, OD450 nm, read-out: cell viability (survival rate), H1650.
[28] abbreviates: drug 10 μM, 72 hours, WST-1, OD450 nm, read-out: cell viability (survival rate), HL-60.
The mark [29] stands for this setting: drug 10 μM, 72 hours, WST-1, OD450 nm, read-out: cell viability (survival rate), MKN-45.
[30] abbreviates: drug 10 μM, 72 hours, WST-1, OD450 nm, read-out: cell viability (survival rate), A375.
Where [31] appears, read: drug 10 μM, 72 hours, WST-1, OD450 nm, read-out: cell viability (survival rate), HeLa.
The mark [32] stands for this setting: drug 10 μM, 72 hours, WST-1, OD450 nm, read-out: cell viability (survival rate), AGS.
Where [33] appears, read: drug 10 μM, 72 hours, WST-1, OD450 nm, read-out: cell viability (survival rate), A549.
The mark [34] stands for this setting: drug 10 μM, 72 hours, WST-1, OD450 nm, read-out: cell viability (survival rate), PC3.

Where a name gives a salt, the structure may show the parent alone. Read-outs that look alike come from different tables or passages of the source.

As for `CC(NCCc1ccc(O)cc1)C(O)c1ccc(O)cc1` (stereo not drawn) [Ritodrine hydrochloride (Yutopar), Ritodrine hydrochloride], the viability (usually a read-out of living cells in per cent, often relative to untreated cells) at 10 µM in [1] (setting [13]) is 92.8%; in [2] (setting [14]), 64.4%; in [3] (setting [15]), 86.5%; in test [4] (setting [16]), 96.4%; in test [5] (setting [17]), 86%; in test [6] (setting [18]), 97.2%. The viability at 10 µM in test [7] (setting [19]) stood at 87.4%; in test [8] (setting [20]), 133%; in test [9] (setting [21]) it was 80.1%; in test [10] (setting [22]), 95.5%; in test [11] (setting [23]), 113%; in test [12], 104%. Further, the “inhibition effect on different cancer cell lines” value in the test on cancer cell lines is “significant inhibition effect”.
As to `CCC(C)(C)c1ccc(CC(C)CN2C[C@@H](C)O[C@@H](C)C2)cc1` (stereo partly drawn) [Amorolfine Hydrochloride], the viability at 10 µM in [1] (setting [13]) worked out at 91.6%; in test [2] (setting [14]), 88.5%; in [3] (setting [15]), 104%; in [4] (setting [16]) it was 79.6%; in test [5] (setting [17]), 104%; in [6] (setting [18]) it was 65.1%. For the same molecule, the viability at 10 µM in test [7] (setting [19]) amounted to 98.6%; in [8] (setting [20]), 84.6%; in test [9] (setting [21]) it was 94.4%; in test [10] (setting [22]) it was 104%; in test [11] (setting [23]), 104%; in [12], 99.7%. For the same molecule, in the test on cancer cell lines, the “inhibition effect on different cancer cell lines” value was “significant inhibition effect”.
On to `CN1CCN(c2c(F)cc3c(=O)c(C(=O)O)cn4c3c2OCN4C)CC1` [Marbofloxacin], for which the viability at 10 µM in test [1] (setting [13]) was 95.6%; in [2] (setting [14]), 91.6%; in test [3] (setting [15]), 92.3%; in [4] (setting [16]), 80.3%; in test [5] (setting [17]), 105%; in test [6] (setting [18]), 112%. For the same molecule, the viability at 10 µM in [7] (setting [19]) worked out at 86.8%; in [8] (setting [20]) it was 88.2%; in test [9] (setting [21]) it was 81.2%; in test [10] (setting [22]) it was 83.8%; in test [11] (setting [23]) it was 78.4%; in test [12] it was 108%. In the test with cancer cell lines, the “inhibition effect on different cancer cell lines” value was “significant inhibition effect”.
Take `Cc1cn([C@@H]2C[C@@H](O)[C@H](CO)O2)c(=O)[nH]c1=O` [Telbivudine (Sebivo, Tyzeka), Telbivudine]: the viability at 10 µM in test [1] (setting [13]) amounted to 94.4%; in test [2] (setting [14]), 50.4%; in test [3] (setting [15]) it was 31.9%; in [4] (setting [16]), 67.5%; in test [5] (setting [17]), 100%; in [6] (setting [18]), 36.2%. Also, the viability at 10 µM in test [7] (setting [19]) was 57.5%; in test [8] (setting [20]) it was 51.9%; in test [9] (setting [21]), 27.5%; in [10] (setting [22]) it was 43.7%; in [11] (setting [23]), 53.6%; in [12] it was 65.3%. Besides, the “inhibition effect on different cancer cell lines” value in the test with cancer cell lines is recorded as “significant inhibition effect”.
On to `CCCNC(=O)NS(=O)(=O)c1ccc(Cl)cc1` [Chlorpropamide], for which the viability at 10 µM in [1] (setting [24]) was 92.5%; in test [2] (setting [25]) it was 59.1%; in test [3] (setting [26]), 32.5%; in test [4] (setting [27]) it was 55.8%; in test [5] (setting [28]) it was 96.7%; in test [6] (setting [29]), 42.7%. Further, the viability at 10 µM in test [7] (setting [30]) stood at 62.1%; in test [8] (setting [31]), 59.9%; in test [9] (setting [32]), 51.2%; in test [10] (setting [33]) it was 36.9%; in [11] (setting [34]), 44.4%; in test [12] it was 59.3%. In the test on cancer cell lines, the “inhibition effect on different cancer cell lines” value is “significant inhibition effect”.
Turning to `CC(=O)N1CCN(c2ccc(OCC3COC(Cn4ccnc4)(c4ccc(Cl)cc4Cl)O3)cc2)CC1` (stereo not drawn) [Ketoconazole], the viability at 10 µM stood at 88.7% in test [1] (setting [13]); 107% in test [2] (setting [14]); 118% in [3] (setting [15]); 46.1% in test [4] (setting [16]); 88.3% in [5] (setting [17]); 77% in test [6] (setting [18]). The viability at 10 µM in test [7] (setting [19]) was 49.2%; in [8] (setting [20]), 84.3%; in test [9] (setting [21]), 65.7%; in [10] (setting [22]), 75.7%; in test [11] (setting [23]), 80.1%; in [12], 90.3%. The “inhibition effect on different cancer cell lines” value with cancer cell lines is “significant inhibition effect”.
`CO/N=C(\C(=O)N[C@@H]1C(=O)N2C(C(=O)OCOC(=O)C(C)(C)C)=C(/C=C\c3scnc3C)CS[C@H]12)c1csc(N)n1` [Cefditoren pivoxil]: the viability at 10 µM in test [1] (setting [24]) was determined as 96.9%; in test [2] (setting [25]), 94.8%; in [3] (setting [26]), 38.4%; in [4] (setting [27]), 80.7%; in test [5] (setting [28]) it was 110%; in test [6] (setting [29]), 70.5%. The viability at 10 µM in test [7] (setting [30]) was found to be 69.1%; in [8] (setting [31]), 58.7%; in test [9] (setting [32]), 86.5%; in [10] (setting [33]), 45.7%; in test [11] (setting [34]) it was 83.9%; in test [12] it was 83.5%. Also, in the test with cancer cell lines, the “inhibition effect on different cancer cell lines” value is “significant inhibition effect”.
Regarding `CCn1cc(C(=O)O)c(=O)c2cc(F)c(N3CCNCC3)nc21` [Enoxacin (Penetrex), Enoxacin], the viability at 10 µM turned out to be 88.1% in [1] (setting [24]); 90.4% in test [2] (setting [25]); 44.5% in test [3] (setting [26]); 92.3% in [4] (setting [27]); 108% in [5] (setting [28]); 54.3% in [6] (setting [29]). In addition, the viability at 10 µM was 66.9% in test [7] (setting [30]); 68.5% in test [8] (setting [31]); 111% in test [9] (setting [32]); 45.8% in test [10] (setting [33]); 112% in test [11] (setting [34]); 83.8% in [12]. In the test with cancer cell lines, the “inhibition effect on different cancer cell lines” value is given as “significant inhibition effect”.
For `C[C@@H]1CC[C@H]2[C@@H](C)C(=O)O[C@@H]3O[C@@]4(C)CC[C@@H]1[C@]32OO4` [Artemisinin], the viability at 10 µM in test [1] (setting [13]) was 116%; in test [2] (setting [14]), 63.6%; in test [3] (setting [15]), 151%; in [4] (setting [16]), 106%; in [5] (setting [17]), 146%; in test [6] (setting [18]), 117%. The viability at 10 µM in test [7] (setting [19]) came to 88.9%; in test [8] (setting [20]) it was 120%; in test [9] (setting [21]), 87.7%; in test [10] (setting [22]), 98.7%; in test [11] (setting [23]) it was 92.5%; in test [12], 104%. In addition, in the test on cancer cell lines, the “inhibition effect on different cancer cell lines” value is recorded as “significant inhibition effect”.

The values are drawn from US10105357B2, “Indication of antibiotic drugs for preparation of cancer inhibition pharmaceutical composition” (LAUNX BIOMEDICAL CO., LTD., priority 2014, dated 2018).
